Measurements from patent US20240208992A1, “MACROCYCLES AS CFTR MODULATORS” (Idorsia Pharmaceuticals Ltd, priority 2021, published 2024).

Target: human F508del-CFTR (Homo sapiens, UniProt P13569, DEL508-508)
Experiment: F508del-CFTR cell surface expression (corrector activity), DiscoveRx ß-galactosidase complementation chemiluminescence assay in recombinant U2OS cell line;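 note: U2OS cells co-expressing ProLink-tagged F508del-CFTR and a membrane-anchored enzyme acceptor, where more surface CFTR restores β-galactosidase activity measured by chemiluminescence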
Conditions: U2OS cell line, 16h compound incubation; for EC50: EC50, F508del-CFTR cell surface expression, geomean values; for Emax: U2OS, in relation to the Emax of the corrector lumacaftor (=100%), arithmetic mean values

human F508del-CFTR, sequence (P13569 with tags, fused parts or gaps DEL508-508): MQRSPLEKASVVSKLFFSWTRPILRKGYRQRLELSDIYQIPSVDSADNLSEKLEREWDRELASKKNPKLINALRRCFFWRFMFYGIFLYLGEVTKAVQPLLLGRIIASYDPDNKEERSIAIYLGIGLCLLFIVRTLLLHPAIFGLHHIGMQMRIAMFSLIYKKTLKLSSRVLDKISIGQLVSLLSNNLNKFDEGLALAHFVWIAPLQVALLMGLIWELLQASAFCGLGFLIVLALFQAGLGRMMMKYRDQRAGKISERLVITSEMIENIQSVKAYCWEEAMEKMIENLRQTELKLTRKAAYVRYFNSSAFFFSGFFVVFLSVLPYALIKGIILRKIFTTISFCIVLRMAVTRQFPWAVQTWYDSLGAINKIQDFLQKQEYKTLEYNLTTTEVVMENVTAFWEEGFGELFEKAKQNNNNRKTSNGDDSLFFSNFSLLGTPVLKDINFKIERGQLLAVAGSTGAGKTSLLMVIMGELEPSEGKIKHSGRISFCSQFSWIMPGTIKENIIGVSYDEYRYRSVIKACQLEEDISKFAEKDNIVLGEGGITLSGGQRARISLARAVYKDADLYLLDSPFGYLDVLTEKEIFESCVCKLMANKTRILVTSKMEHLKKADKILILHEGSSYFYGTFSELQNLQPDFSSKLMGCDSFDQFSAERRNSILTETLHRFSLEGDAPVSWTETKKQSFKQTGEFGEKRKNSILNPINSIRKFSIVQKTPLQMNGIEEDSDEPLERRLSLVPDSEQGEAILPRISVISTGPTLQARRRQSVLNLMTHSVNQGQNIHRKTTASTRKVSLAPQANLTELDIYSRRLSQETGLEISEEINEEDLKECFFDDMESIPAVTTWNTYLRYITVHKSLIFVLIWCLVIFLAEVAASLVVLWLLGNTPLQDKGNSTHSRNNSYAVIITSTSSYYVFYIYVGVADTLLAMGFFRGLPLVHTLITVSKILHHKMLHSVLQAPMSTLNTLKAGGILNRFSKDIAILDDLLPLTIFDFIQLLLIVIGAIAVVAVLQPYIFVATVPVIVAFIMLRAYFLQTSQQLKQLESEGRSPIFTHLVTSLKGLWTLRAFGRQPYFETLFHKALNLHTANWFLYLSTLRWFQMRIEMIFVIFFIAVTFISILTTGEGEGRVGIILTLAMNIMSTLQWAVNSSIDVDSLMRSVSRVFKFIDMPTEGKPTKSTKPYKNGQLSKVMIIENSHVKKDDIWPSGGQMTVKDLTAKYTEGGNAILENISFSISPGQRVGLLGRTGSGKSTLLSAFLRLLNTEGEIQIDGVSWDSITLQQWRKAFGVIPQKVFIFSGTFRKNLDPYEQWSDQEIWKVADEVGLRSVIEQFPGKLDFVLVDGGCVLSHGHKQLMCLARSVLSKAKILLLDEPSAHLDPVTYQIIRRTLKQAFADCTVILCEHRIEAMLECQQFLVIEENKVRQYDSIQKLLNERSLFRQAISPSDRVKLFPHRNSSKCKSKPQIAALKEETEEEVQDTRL

| Structure (SMILES) | EC50 [nM] | Emax [%] |
| --- | --- | --- |
| CC(C)C[C@H]1C(=O)N2CCOC[C@@H]2C(=O)N[C@H](Cc2ccccc2)COc2cnc3ccccc3c2C(=O)N[C@H](C(=O)NCCc2ccc(Br)cc2)CC(=O)N1C [Example 49, (9S,13S,19aR,22R)-22-benzyl-N-(4-bromophenethyl)-13-isobutyl-12-methyl-7,11,14,20-tetraoxo-7,8,9,10,11,12,13,14,16,17,19,19a,20,21,22,23-hexadecahydro-[1,4]oxazino[3′,4′:6,7][1]oxa[4,7,10,14]tetraazacycloheptadecino[17,16-c]quinoline-9-carboxamide] | 347 | 136 |
| CC(C)C[C@H]1C(=O)N2CCOC[C@@H]2C(=O)N[C@H](Cc2ccccc2)COc2cnc3ccccc3c2C(=O)N[C@H](C(=O)NCCc2ccccc2F)CC(=O)N1C [Example 50, (9S,13S,19aR,22R)-22-benzyl-N-(2-fluorophenethyl)-13-isobutyl-12-methyl-7,11,14,20-tetraoxo-7,8,9,10,11,12,13,14,16,17,19,19a,20,21,22,23-hexadecahydro-[1,4]oxazino[3′,4′:6,7][1]oxa[4,7,10,14]tetraazacycloheptadecino[17,16-c]quinoline-9-carboxamide] | 558 | 256 |
| CC(C)C[C@H]1C(=O)N2CCOC[C@@H]2C(=O)N[C@H](Cc2ccccc2)COc2cnc3ccccc3c2C(=O)N[C@H](C(=O)NCCc2cccc(Cl)c2)CC(=O)N1C [Example 51, (9S,13S,19aR,22R)-22-benzyl-N-(3-chlorophenethyl)-13-isobutyl-12-methyl-7,11,14,20-tetraoxo-7,8,9,10,11,12,13,14,16,17,19,19a,20,21,22,23-hexadecahydro-[1,4]oxazino[3′,4′:6,7][1]oxa[4,7,10,14]tetraazacycloheptadecino[17,16-c]quinoline-9-carboxamide] | 352 | 187 |
| CC(C)C[C@H]1C(=O)N2CCOC[C@@H]2C(=O)N[C@H](Cc2ccccc2)COc2cnc3ccccc3c2C(=O)N[C@H](C(=O)NCCc2cccc(Br)c2)CC(=O)N1C [Example 52, (9S,13S,19aR,22R)-22-benzyl-N-(3-bromophenethyl)-13-isobutyl-12-methyl-7,11,14,20-tetraoxo-7,8,9,10,11,12,13,14,16,17,19,19a,20,21,22,23-hexadecahydro-[1,4]oxazino[3′,4′:6,7][1]oxa[4,7,10,14]tetraazacycloheptadecino[17,16-c]quinoline-9-carboxamide] | 348 | 176 |
| CC(C)C[C@H]1C(=O)N2CCOC[C@@H]2C(=O)N[C@H](Cc2ccccc2)COc2cnc3ccccc3c2C(=O)N[C@H](C(=O)NCCc2ccc3c(c2)OCCO3)CC(=O)N1C [Example 53, (9S,13S,19aR,22R)-22-benzyl-N-(2-(2,3-dihydrobenzo[b][1,4]dioxin-6-yl)ethyl)-13-isobutyl-12-methyl-7,11,14,20-tetraoxo-7,8,9,10,11,12,13,14,16,17,19,19a,20,21,22,23-hexadecahydro-[1,4]oxazino[3′,4′:6,7][1]oxa[4,7,10,14]tetraazacycloheptadecino[17,16-c]quinoline-9-carboxamide] | 596 | 404 |
| CC(C)C[C@H]1C(=O)N2CCOC[C@@H]2C(=O)N[C@H](Cc2ccccc2)COc2cnc3ccccc3c2C(=O)N[C@H](C(=O)NCCc2ccc3c(c2)OCC3)CC(=O)N1C [Example 54, (9S,13S,19aR,22R)-22-benzyl-N-(2-(2,3-dihydrobenzofuran-6-yl)ethyl)-13-isobutyl-12-methyl-7,11,14,20-tetraoxo-7,8,9,10,11,12,13,14,16,17,19,19a,20,21,22,23-hexadecahydro-[1,4]oxazino[3′,4′:6,7][1]oxa[4,7,10,14]tetraazacycloheptadecino[17,16-c]quinoline-9-carboxamide] | 558 | 373 |
| CC(C)C[C@H]1C(=O)N2CCOC[C@@H]2C(=O)N[C@H](Cc2ccccc2)COc2cnc3ccccc3c2C(=O)N[C@H](C(=O)NCCc2ccc(-n3nccn3)cc2)CC(=O)N1C [Example 55, (9S,13S,19aR,22R)-N-(4-(2H-1,2,3-triazol-2-yl)phenethyl)-22-benzyl-13-isobutyl-12-methyl-7,11,14,20-tetraoxo-7,8,9,10,11,12,13,14,16,17,19,19a,20,21,22,23-hexadecahydro-[1,4]oxazino[3′,4′:6,7][1]oxa[4,7,10,14]tetraazacycloheptadecino[17,16-c]quinoline-9-carboxamide] | 945 | 245 |
| CC(C)C[C@H]1C(=O)N2CCOC[C@@H]2C(=O)N[C@H](Cc2ccccc2)COc2cnc3ccccc3c2C(=O)N[C@H](C(=O)NCCc2cccc(-n3nccn3)c2)CC(=O)N1C [Example 56, (9S,13S,19aR,22R)-N-(3-(2H-1,2,3-triazol-2-yl)phenethyl)-22-benzyl-13-isobutyl-12-methyl-7,11,14,20-tetraoxo-7,8,9,10,11,12,13,14,16,17,19,19a,20,21,22,23-hexadecahydro-[1,4]oxazino[3′,4′:6,7][1]oxa[4,7,10,14]tetraazacycloheptadecino[17,16-c]quinoline-9-carboxamide] | 764 | 256 |
| COc1cc(CCNC(=O)[C@@H]2CC(=O)N(C)[C@@H](CC(C)C)C(=O)N3CCOC[C@@H]3C(=O)N[C@H](Cc3ccccc3)COc3cnc4ccccc4c3C(=O)N2)cc(OC)c1 [Example 57, (9S,13S,19aR,22R)-22-benzyl-N-(3,5-dimethoxyphenethyl)-13-isobutyl-12-methyl-7,11,14,20-tetraoxo-7,8,9,10,11,12,13,14,16,17,19,19a,20,21,22,23-hexadecahydro-[1,4]oxazino[3′,4′:6,7][1]oxa[4,7,10,14]tetraazacycloheptadecino[17,16-c]quinoline-9-carboxamide] | 414 | 315 |
| CC(C)C[C@H]1C(=O)N2CCOC[C@@H]2C(=O)N[C@H](Cc2ccccc2)COc2cnc3ccccc3c2C(=O)N[C@H](C(=O)NCCc2ccccc2)CC(=O)N1C [Example 58, (9S,13S,19aR,22R)-22-benzyl-13-isobutyl-12-methyl-7,11,14,20-tetraoxo-N-phenethyl-7,8,9,10,11,12,13,14,16,17,19,19a,20,21,22,23-hexadecahydro-[1,4]oxazino[3′,4′:6,7][1]oxa[4,7,10,14]tetraazacycloheptadecino[17,16-c]quinoline-9-carboxamide] | 759 | 175 |
| COc1ccc(CCNC(=O)[C@@H]2CC(=O)N(C)[C@@H](CC(C)C)C(=O)N3CCOC[C@@H]3C(=O)N[C@H](Cc3ccccc3)COc3cnc4ccccc4c3C(=O)N2)c(F)c1 [Example 59, (9S,13S,19aR,22R)-22-benzyl-N-(2-fluoro-4-methoxyphenethyl)-13-isobutyl-12-methyl-7,11,14,20-tetraoxo-7,8,9,10,11,12,13,14,16,17,19,19a,20,21,22,23-hexadecahydro-[1,4]oxazino[3′,4′:6,7][1]oxa[4,7,10,14]tetraazacycloheptadecino[17,16-c]quinoline-9-carboxamide] | 772 | 237 |
| Cc1ccc(CCNC(=O)[C@@H]2CC(=O)N(C)[C@@H](CC(C)C)C(=O)N3CCOC[C@@H]3C(=O)N[C@H](Cc3ccccc3)COc3cnc4ccccc4c3C(=O)N2)cc1 [Example 60, (9S,13S,19aR,22R)-22-benzyl-13-isobutyl-12-methyl-N-(4-methylphenethyl)-7,11,14,20-tetraoxo-7,8,9,10,11,12,13,14,16,17,19,19a,20,21,22,23-hexadecahydro-[1,4]oxazino[3′,4′:6,7][1]oxa[4,7,10,14]tetraazacycloheptadecino[17,16-c]quinoline-9-carboxamide] | 662 | 228 |
| Cc1ccc(CCNC(=O)[C@@H]2CC(=O)N(C)[C@@H](CC(C)C)C(=O)N3CCOC[C@@H]3C(=O)N[C@H](Cc3ccccc3)COc3cnc4ccccc4c3C(=O)N2)cc1C [Example 61, (9S,13S,19aR,22R)-22-benzyl-N-(3,4-dimethylphenethyl)-13-isobutyl-12-methyl-7,11,14,20-tetraoxo-7,8,9,10,11,12,13,14,16,17,19,19a,20,21,22,23-hexadecahydro-[1,4]oxazino[3′,4′:6,7][1]oxa[4,7,10,14]tetraazacycloheptadecino[17,16-c]quinoline-9-carboxamide] | 421 | 202 |
| Cc1cccc(CCNC(=O)[C@@H]2CC(=O)N(C)[C@@H](CC(C)C)C(=O)N3CCOC[C@@H]3C(=O)N[C@H](Cc3ccccc3)COc3cnc4ccccc4c3C(=O)N2)c1 [Example 62, (9S,13S,19aR,22R)-22-benzyl-13-isobutyl-12-methyl-N-(3-methylphenethyl)-7,11,14,20-tetraoxo-7,8,9,10,11,12,13,14,16,17,19,19a,20,21,22,23-hexadecahydro-[1,4]oxazino[3′,4′:6,7][1]oxa[4,7,10,14]tetraazacycloheptadecino[17,16-c]quinoline-9-carboxamide] | 809 | 222 |
| Cc1ccc(CCNC(=O)[C@@H]2CC(=O)N(C)[C@@H](CC(C)C)C(=O)N3CCOC[C@@H]3C(=O)N[C@H](Cc3ccccc3)COc3cnc4ccccc4c3C(=O)N2)c(C)c1 [Example 63, (9S,13S,19aR,22R)-22-benzyl-N-(2,4-dimethylphenethyl)-13-isobutyl-12-methyl-7,11,14,20-tetraoxo-7,8,9,10,11,12,13,14,16,17,19,19a,20,21,22,23-hexadecahydro-[1,4]oxazino[3′,4′:6,7][1]oxa[4,7,10,14]tetraazacycloheptadecino[17,16-c]quinoline-9-carboxamide] | 418 | 250 |
| Cc1ccccc1CCNC(=O)[C@@H]1CC(=O)N(C)[C@@H](CC(C)C)C(=O)N2CCOC[C@@H]2C(=O)N[C@H](Cc2ccccc2)COc2cnc3ccccc3c2C(=O)N1 [Example 64, (9S,13S,19aR,22R)-22-benzyl-13-isobutyl-12-methyl-N-(2-methylphenethyl)-7,11,14,20-tetraoxo-7,8,9,10,11,12,13,14,16,17,19,19a,20,21,22,23-hexadecahydro-[1,4]oxazino[3′,4′:6,7][1]oxa[4,7,10,14]tetraazacycloheptadecino[17,16-c]quinoline-9-carboxamide] | 441 | 143 |
